Data: US7880007B2, “Bicyclic substituted phenyl piperidine modulators of muscarinic receptors” (Vertex Pharmaceuticals Incorporated, priority 2004, dated 2011)

Assays:
Format in all cases: cell-based
[1] = target: T1, M1 muscarinic receptor (Homo sapiens, UniProt P11229); experiment: Functional mobilization of intracellular calcium (FLIPR), M1-CHO cells; settings: for M1 Activity: M1-CHO cells, calcium mobilization (FLIPR)
T1 construct: expressed in transfected cells; host or cells: CHO (M1-CHO)
T1 sequence (P11229 1-460): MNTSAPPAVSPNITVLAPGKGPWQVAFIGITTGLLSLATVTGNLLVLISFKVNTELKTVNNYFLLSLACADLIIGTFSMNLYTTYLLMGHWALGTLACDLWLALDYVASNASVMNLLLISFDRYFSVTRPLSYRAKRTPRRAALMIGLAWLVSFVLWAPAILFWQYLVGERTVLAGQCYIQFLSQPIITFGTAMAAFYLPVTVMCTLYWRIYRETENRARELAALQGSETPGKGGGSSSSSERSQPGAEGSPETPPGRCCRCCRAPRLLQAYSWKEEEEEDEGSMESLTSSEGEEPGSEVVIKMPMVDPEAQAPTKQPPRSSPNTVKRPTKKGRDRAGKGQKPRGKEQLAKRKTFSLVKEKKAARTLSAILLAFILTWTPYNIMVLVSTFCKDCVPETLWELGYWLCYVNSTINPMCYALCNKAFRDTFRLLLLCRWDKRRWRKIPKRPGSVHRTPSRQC
Procedure, shortened: (§1)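 FLIPR fluorescence (ex 488, em 540 nm) recorded 60 sec after compound addition to dye-loaded CHO cells. Agonist mode: compound alone. Antagonist mode: 15 min compound pre-incubation, then carbachol at EC80, or co-application. Efficacy expressed as % of maximal carbachol response.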

[2] = target: T2, M4 muscarinic receptor (Homo sapiens, UniProt P08173); experiment: Functional mobilization of intracellular calcium (FLIPR), M4-CHO cells; settings: for M4 Activity: M4-CHO cells, calcium mobilization (FLIPR)
T2 construct: expressed in transfected cells; host or cells: CHO (M4-CHO)
T2 sequence (P08173 1-479): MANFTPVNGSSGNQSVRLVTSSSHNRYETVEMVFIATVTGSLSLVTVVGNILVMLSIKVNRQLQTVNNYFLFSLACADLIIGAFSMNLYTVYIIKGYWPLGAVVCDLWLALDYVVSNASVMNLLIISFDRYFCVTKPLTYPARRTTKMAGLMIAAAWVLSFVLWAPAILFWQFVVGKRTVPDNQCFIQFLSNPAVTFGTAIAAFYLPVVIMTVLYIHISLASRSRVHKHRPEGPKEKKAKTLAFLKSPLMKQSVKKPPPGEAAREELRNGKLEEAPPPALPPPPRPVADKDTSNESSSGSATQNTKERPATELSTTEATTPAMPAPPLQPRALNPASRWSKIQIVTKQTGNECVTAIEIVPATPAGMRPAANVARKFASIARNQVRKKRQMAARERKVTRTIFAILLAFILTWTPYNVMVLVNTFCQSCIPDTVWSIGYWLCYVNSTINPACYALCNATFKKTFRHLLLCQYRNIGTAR
Procedure, shortened: as §1

[3] = target: T3, M2 muscarinic receptor (Homo sapiens, UniProt P08172); experiment: Functional mobilization of intracellular calcium (FLIPR), M2-CHO cells; settings: for M2 Activity: M2-CHO cells, calcium mobilization (FLIPR)
T3 construct: expressed in transfected cells; host or cells: CHO (M2-CHO)
T3 sequence (P08172 1-466): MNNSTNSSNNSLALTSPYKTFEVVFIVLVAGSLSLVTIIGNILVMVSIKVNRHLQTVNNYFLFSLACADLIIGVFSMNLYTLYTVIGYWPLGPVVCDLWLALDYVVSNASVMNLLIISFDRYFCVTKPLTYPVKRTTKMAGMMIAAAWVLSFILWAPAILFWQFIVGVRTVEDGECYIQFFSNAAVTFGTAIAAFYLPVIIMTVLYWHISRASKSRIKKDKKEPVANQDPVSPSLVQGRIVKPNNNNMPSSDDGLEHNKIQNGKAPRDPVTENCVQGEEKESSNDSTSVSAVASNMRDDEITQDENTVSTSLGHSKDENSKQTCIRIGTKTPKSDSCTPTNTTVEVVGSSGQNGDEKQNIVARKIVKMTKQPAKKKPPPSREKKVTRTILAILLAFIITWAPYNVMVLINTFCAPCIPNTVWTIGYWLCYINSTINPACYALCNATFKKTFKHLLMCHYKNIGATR
Procedure, shortened: as §1

[4] = target: T4, M3 muscarinic receptor (Homo sapiens, UniProt P20309); experiment: Functional mobilization of intracellular calcium (FLIPR), M3-CHO cells; settings: for M3 Activity: M3-CHO cells, calcium mobilization (FLIPR)
T4 construct: expressed in transfected cells; host or cells: CHO (M3-CHO)
Procedure, shortened: as §1

[5] = 100% efficacy = maximum response obtained with the Carbachol control

T4 sequence (P20309 whole entry): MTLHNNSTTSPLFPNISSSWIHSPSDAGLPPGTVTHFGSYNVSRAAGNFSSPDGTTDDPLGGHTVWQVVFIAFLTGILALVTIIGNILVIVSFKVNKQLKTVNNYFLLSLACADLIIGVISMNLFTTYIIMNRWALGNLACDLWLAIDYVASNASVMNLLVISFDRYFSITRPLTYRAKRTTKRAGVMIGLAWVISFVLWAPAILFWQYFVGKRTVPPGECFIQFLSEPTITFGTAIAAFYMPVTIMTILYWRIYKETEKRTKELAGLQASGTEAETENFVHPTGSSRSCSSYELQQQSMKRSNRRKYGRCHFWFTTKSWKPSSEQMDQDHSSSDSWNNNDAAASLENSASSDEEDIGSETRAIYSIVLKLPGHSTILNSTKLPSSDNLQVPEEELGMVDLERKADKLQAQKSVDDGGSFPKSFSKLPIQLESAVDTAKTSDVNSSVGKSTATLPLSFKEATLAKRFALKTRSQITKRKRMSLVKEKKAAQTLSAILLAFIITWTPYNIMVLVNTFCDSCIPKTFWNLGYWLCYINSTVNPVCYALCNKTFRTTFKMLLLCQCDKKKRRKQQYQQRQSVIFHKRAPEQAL

| Emax [1, 5] [%] | Emax [2, 5] [%] | Emax [3, 5] [%] | Emax [4, 5] [%] | SMILES | M1 Activity [1] | M4 Activity [2] | M2 Activity [3] | M3 Activity [4] | M1 Efficacy [1, 5] | M4 Efficacy [2, 5] | M2 Efficacy [3, 5] | M3 Efficacy [4, 5] |
| --- | --- | --- | --- | --- | --- | --- | --- | --- | --- | --- | --- | --- |
| 25 to 100 | 25 to 100 | 25 to 100 | < 25 | COc1ccc(C)cc1C1CCN(C2C[C@H]3CC[C@H]2C3)CC1 (stereo partly drawn) [Compound 51] | ++ (activity was measured to be from 1.0 μM to 5.0 μM) | +++ (activity was measured to be less than 1.0 μM) | + (activity was measured to be greater than 5.0 μM) | + (activity was measured to be greater than 5.0 μM) |  |  |  |  |
| < 25 | 25 to 100 | < 25 | < 25 | COc1ccc(-c2ccc3c(c2)OCO3)cc1C1CCN(C2CCOCC2)CC1 [Compound 52] | + (activity was measured to be greater than 5.0 μM) | + (activity was measured to be greater than 5.0 μM) | + (activity was measured to be greater than 5.0 μM) | + (activity was measured to be greater than 5.0 μM) |  |  |  |  |
|  |  |  |  | COc1ccc(Cl)cc1C1CCN(C2CCC(=NOC3CCCCO3)CC2)CC1 (stereo not drawn) [Compound 54] | ++ (activity was measured to be from 1.0 μM to 5.0 μM) | +++ (activity was measured to be less than 1.0 μM) | + (activity was measured to be greater than 5.0 μM) | + (activity was measured to be greater than 5.0 μM) | ++ (efficacy was calculated to be from 100% to 25%) | ++ (efficacy was calculated to be from 100% to 25%) | + (efficacy was calculated to be less than 25%) | + (efficacy was calculated to be less than 25%) |
| 25 to 100 | 25 to 100 | 25 to 100 | < 25 | COc1ccc(C(=O)COc2ccccc2C2CCN([C@H]3C[C@H]4CC[C@H]3C4)CC2)cc1 [Compound 57] | ++ (activity was measured to be from 1.0 μM to 5.0 μM) | ++ (activity was measured to be from 1.0 μM to 5.0 μM) | ++ (activity was measured to be from 1.0 μM to 5.0 μM) | + (activity was measured to be greater than 5.0 μM) |  |  |  |  |
| 25 to 100 | 25 to 100 | < 25 | < 25 | COc1ccc(F)cc1C1(F)CCN(C2CCCCC2)CC1 [Compound 59] | + (activity was measured to be greater than 5.0 μM) | ++ (activity was measured to be from 1.0 μM to 5.0 μM) | + (activity was measured to be greater than 5.0 μM) | + (activity was measured to be greater than 5.0 μM) |  |  |  |  |
| 25 to 100 | 25 to 100 | < 25 | < 25 | CCOC(=O)N1CCC(CN2CCC(c3cc(F)cc(F)c3OC)CC2)CC1 [Compound 65] | +++ (activity was measured to be less than 1.0 μM) | +++ (activity was measured to be less than 1.0 μM) | + (activity was measured to be greater than 5.0 μM) | + (activity was measured to be greater than 5.0 μM) |  |  |  |  |

| SMILES | Emax [1, 5] [%] | Emax [2, 5] [%] | Emax [3, 5] [%] | Emax [4, 5] [%] | M1 Activity [1] | M4 Activity [2] | M2 Activity [3] | M3 Activity [4] | M1 Efficacy [1, 5] | M4 Efficacy [2, 5] | M2 Efficacy [3, 5] | M3 Efficacy [4, 5] |
| --- | --- | --- | --- | --- | --- | --- | --- | --- | --- | --- | --- | --- |
| COc1ccc(F)cc1C1(O)CCN(C[C@@H]2C[C@H]3C=C[C@H]2C3)CC1 [Compound 60] | < 25 | 25 to 100 | < 25 | < 25 | + (activity was measured to be greater than 5.0 μM) | ++ (activity was measured to be from 1.0 μM to 5.0 μM) | + (activity was measured to be greater than 5.0 μM) | + (activity was measured to be greater than 5.0 μM) |  |  |  |  |
| Cc1ccc(C)c(C2(O)CCN(CC3CC4C=CC3C4)CC2)c1 (stereo not drawn) [Compound 62, 1-((bicyclo[2.2.1]hept-5-en-2-yl)methyl)-4-(2,5-dimethylphenyl)piperidin-4-ol] | 25 to 100 | 25 to 100 | < 25 |  | ++ (activity was measured to be from 1.0 μM to 5.0 μM) | ++ (activity was measured to be from 1.0 μM to 5.0 μM) | + (activity was measured to be greater than 5.0 μM) | + (activity was measured to be greater than 5.0 μM) |  |  |  |  |
